Results on five compounds are retold here after publication PMC5349910, “Discovery of BPR1K871, a quinazoline based, multi-kinase inhibitor for the treatment of AML and solid tumors: Rational design, synthesis, in vitro and in vivo evaluation” (Oncotarget, 2016).

The test system of one assay is MOLM-13 cells. As to the kind of experiment: MTS cell viability assay, MOLM-13. The format is cell-based, human. To be noted: Homo sapiens, MOLM-13, 72 h, read-out: MOLM-13 EC50. The protocol: (§1) The MTS cell viability assay was conducted as previously described. The MOLM-13 human leukemia cell line was obtained from the German Resource Centre for Biological Material (DSMZ, Braunschweig, Germany); the MV4-11 cell line was purchased from the American Type Culture Collection (ATCC, Manassas, VA, USA). […] To determine cell viability after drug treatment, assay for MOLM-13 and MV4-11 was performed by seeding 10000 cells per well in a 96-well culture plate. […] After 16 h, cells were then treated with vehicle or various concentrations of compound in medium for 72 h. Viable cells were quantified using the MTS method (Promega, Madison, WI, USA) according to the manufacturer's recommended protocol. Results were determined by measuring the absorbance at 490 nm using a plate reader (Victor2; PerkinElmer, Shelton, CT, USA).

In a further assay the test system is MV4-11 cells. As to the kind of experiment: MTS cell viability assay, MV4-11. Format: cell-based, human. To be noted: Homo sapiens, MV4-11, 72 h, read-out: MV4-11 EC50. The protocol: as §1
(In general: Tetrazolium assays rely on reduction of a dye to a coloured formazan, in cell work by metabolically active cells.)

A further assay concerns RS4-11 cells. As to the kind of experiment: Anti-proliferative activity, RS4-11. The format is cell-based. To be noted: Homo sapiens.
The test system of the next assay is U937 cells. In words: Anti-proliferative activity, U937. The format is cell-based. To be noted: Homo sapiens.
In a further assay the test system is K562 cells. In words: Anti-proliferative activity, K562. The format is cell-based. To be noted: Homo sapiens.
A further assay concerns HCC827 cells. As to the kind of experiment: Anti-proliferative activity, HCC827. Format: cell-based. To be noted: Homo sapiens.
Another assay relates to H1975 cells. As to the kind of experiment: Anti-proliferative activity, H1975. Format: cell-based. To be noted: Homo sapiens.
A further assay deals with H2228 cells. In words: Anti-proliferative activity, H2228. Format: cell-based. To be noted: Homo sapiens.
Another assay concerns CL-97 cells. In words: Anti-proliferative activity, CL-97. Format: cell-based, human.
The next assay concerns HCT-116 cells. As to the kind of experiment: Anti-proliferative activity, HCT-116. The format is cell-based, human.
In the next assay the target is T1, FLT3 (Homo sapiens, UniProt P36888).
T1 construct: FLT3 kinase catalytic domain (residues Tyr567-Ser993); made in house; host or cells: Sf9 insect cells (baculovirus, pBac-PAK8-GST-FLT3-KD)
T1 sequence (P36888 567-993): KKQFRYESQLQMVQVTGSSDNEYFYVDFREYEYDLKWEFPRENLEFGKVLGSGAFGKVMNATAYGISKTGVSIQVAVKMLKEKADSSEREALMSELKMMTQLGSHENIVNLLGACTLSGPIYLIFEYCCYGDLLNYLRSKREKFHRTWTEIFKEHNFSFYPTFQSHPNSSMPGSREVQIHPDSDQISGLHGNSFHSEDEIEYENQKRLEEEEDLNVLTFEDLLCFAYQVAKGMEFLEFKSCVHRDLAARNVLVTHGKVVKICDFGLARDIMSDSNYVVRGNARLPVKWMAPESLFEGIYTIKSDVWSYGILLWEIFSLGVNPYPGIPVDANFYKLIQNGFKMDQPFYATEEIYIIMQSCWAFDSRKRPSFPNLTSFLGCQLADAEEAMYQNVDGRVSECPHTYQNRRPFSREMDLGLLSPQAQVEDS
Also on record: method as in PMID 20550212, PMID 23172777, PMID 24665000. To be noted: previously reported leads 1, 2, 3; cited from earlier work.

Another assay addresses T2, AURKA (Homo sapiens, UniProt O14965).
T2 construct: recombinant GST-AURKA (residues Ser123-Ser401) containing the kinase domain; GST (N); made in house; host or cells: Sf9 insect cells
T2 sequence (O14965 123-401): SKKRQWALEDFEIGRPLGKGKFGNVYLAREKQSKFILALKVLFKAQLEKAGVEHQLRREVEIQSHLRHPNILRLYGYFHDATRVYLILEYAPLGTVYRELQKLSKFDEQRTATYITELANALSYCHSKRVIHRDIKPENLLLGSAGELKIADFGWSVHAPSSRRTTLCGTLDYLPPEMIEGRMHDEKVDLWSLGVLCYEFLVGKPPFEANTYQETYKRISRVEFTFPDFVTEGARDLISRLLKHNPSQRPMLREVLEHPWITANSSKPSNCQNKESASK
On the set-up: method as in PMID 20550212, PMID 23172777, PMID 24665000. To be noted: previously reported leads 1, 2, 3; cited from earlier work.

For another assay, the system named is Mia-PaCa2 cells. In words: Anti-proliferative activity, Mia-PaCa2. The format is cell-based, human. To be noted: Homo sapiens, MIA PaCa-2, Human Pancreatic Cancer; supplement values ± SEM.
Another assay has as its system Colo 205 cells. As to the kind of experiment: Anti-proliferative activity, Colo 205. The format is cell-based. To be noted: Homo sapiens, COLO 205, Human Colon Cancer.
[1] abbreviates: MTS, 72 h, AML-FLT3-ITD (heterozygous), supplement values ± SEM.
The mark [2] stands for this setting: MTS, 72 h, AML-FLT3-ITD (homozygous), supplement values ± SEM.
Setting [3] is: HCT-116, Human Colon Cancer, supplement values ± SEM, read-out: HCT-116 EC50.

Where two headings read alike, the source gives them in different places.

As usually defined, the EC50 is the midpoint of the concentration-response curve. For the compound `CCN(CCCOc1ccc2c(Nc3cc(CC(=O)Nc4cccc(F)c4)n[nH]3)ncnc2c1)CCOP(=O)(O)O` [Barasertib], the concentration for a half-maximal effect (EC50) with MOLM-13 cells is 42 nM; in the assay with MV4-11 cells, 17 nM; with RS4-11 cells (RS4-11, read-out: RS4-11 EC50), 11 nM; with U937 cells (U-937, read-out: U937 EC50) it was over 10000 nM; in the assay with K562 cells (K562, read-out: K562 EC50) it was over 10000 nM; with HCC827 cells (HCC827, read-out: HCC827 EC50), 127 nM. Besides, the EC50 with H1975 cells (NCI-H1975, read-out: H1975 EC50) worked out at 390 nM; in the assay on H2228 cells (NCI-H2228, read-out: H2228 EC50), 340 nM; in the assay on CL-97 cells (Homo sapiens, CL97, read-out: CL-97 EC50), 454 nM; in the assay with HCT-116 cells (Homo sapiens, HCT-116, read-out: HCT-116 EC50), 67 nM.

By IC50 is commonly meant the midpoint of a concentration-inhibition curve. Take `COc1cc2ncnc(NCCc3ccc(NC(=O)Nc4ccccc4)cc3)c2cc1OC` [Compound 2]: the IC50 at FLT3 was over 10000 nM.

Turning to `O=C(Nc1cccc(Cl)c1)Nc1ncc(CCNc2ncnc3oc(-c4ccccc4)c(-c4ccccc4)c23)s1` [Compound 3], the results for the IC50 at AURKA and on FLT3 were 43 nM and 322 nM, respectively.

In the case of `Cc1ccc(F)c(NC(=O)Nc2ccc(-c3cccc4[nH]nc(N)c34)cc2)c1` [Linifanib], the EC50 in the assay with MOLM-13 cells (setting [1]) was 38 nM; in the assay on MV4-11 cells (setting [2]), 82 nM; with RS4-11 cells (RS4-11, ALL-wt-FLT3 (homozygous), supplement values ± SEM, read-out: RS4-11 EC50), 9200 nM; in the assay on U937 cells (U-937, AML-FLT3-negative, supplement values ± SEM, read-out: U937 EC50) it was over 18000 nM; in the assay with K562 cells (K562, CML-Bcr-Abl FLT3-negative, supplement values ± SEM, read-out: K562 EC50), over 20000 nM; with HCC827 cells (HCC827, NSCLC-EGFR L858R, supplement values ± SEM, read-out: HCC827 EC50), 6180 nM. Also, the EC50 in the assay on H1975 cells (NCI-H1975, NSCLC-EGFR LR/TM, supplement values ± SEM, read-out: H1975 EC50) was 8850 nM; in the assay with H2228 cells (NCI-H2228, NSCLC-ALK, supplement values ± SEM, read-out: H2228 EC50) it was 8780 nM; in the assay with CL-97 cells (CL97, Human Lung Cancer, supplement values ± SEM, read-out: CL-97 EC50) it was over 20000 nM; in the assay with HCT-116 cells (setting [3]), 8070 nM; with Mia-PaCa2 cells it was 16400 nM.

On to `Cc1cc(Nc2cc(N3CCN(C)CC3)nc(Sc3ccc(NC(=O)C4CC4)cc3)n2)[nH]n1` [VX-680, reference compound], for which the EC50 in the assay with MOLM-13 cells (setting [1]) was 69 nM; in the assay with MV4-11 cells (setting [2]) it was 71 nM; in the assay on HCT-116 cells (setting [3]) it was 97 nM; with Colo 205 cells it was 86 nM.
